In patent US11395815B2, “Compound for treating osteoarthritis” (Ascentage Pharma (Suzhou) Co., Ltd., priority 2018, dated 2022):

How the values were obtained:
mouse ACLT model [1] = test: Weight bearing test in mouse osteoarthritis (ACLT) model; type: in vivo; conditions: for weight bearing % (weight on operated limb versus contralateral unoperated limb): 13 days after first dose
Source text: C57BL/6 mice aged 10 weeks were used for the study (n=12 for each group). Anterior cruciate ligament transection (ACLT) model was used to simulate the pathological condition in OA. To conduct ACLT surgery, the joint capsule of the right rear limb of mice was opened, and the anterior cruciate ligament (ACL) was transected with micro-scissors under a surgical microscope. After irrigation with saline to remove tissue debris, the skin incision was closed. Blank vehicle contained 5% Pluronic F68 (BASF, Germany) in 10 mM phosphate buffered saline (PBS, NaH2PH4/Na2HPO4) with pH adjusted to 7.4. Before each injection and sacrificing at the end point, the function of the limbs was assessed by a weight bearing test. All the mice were sacrificed for pathological evaluation and immunohistochemical staining 13 days after first dosing. Weight bearing test was conducted using a […] model 600MR (IITC Life Science, CA, USA). Briefly, after calibration of the equipment, mice were placed inside the chamber to stand with each hind paw on a scale, allowed to stand for 5-10 s until the readings were stable. The readings reflected the weight that was placed on each hind limb. The ACLT surgery caused osteoarthritis (OA) and decreased the weight placed on the hind limb. The results were expressed as the percentage of the weight placed on the operated limb versus the contralateral unoperated limb (weight bearing %). The value of weight bearing % is expected to be 100 in healthy mice, indicating the same weight placed on both limbs. The value of weight bearing % will decrease to 50˜60 after ACLT surgery due to less weight that could be placed on the operated limb than the unoperated limb. Alleviation of joint pain by […] should be reflected by an increased value of weight bearing %.

mouse ACLT model [2] = test: Pathological evaluation of mouse joints (safranin O staining) in ACLT model; type: in vivo; conditions: intra-articular, joints taken 13 days after first dosing, safranin O sections
Source text: C57BL/6 mice aged 10 weeks were used for the study (n=12 for each group). Anterior cruciate ligament transection (ACLT) model was used to simulate the pathological condition in OA. To conduct ACLT surgery, the joint capsule of the right rear limb of mice was opened, and the anterior cruciate ligament (ACL) was transected with micro-scissors under a surgical microscope. After irrigation with saline to remove tissue debris, the skin incision was closed. Blank vehicle contained 5% Pluronic F68 (BASF, Germany) in 10 mM phosphate buffered saline (PBS, NaH2PH4/Na2HPO4) with pH adjusted to 7.4. Before each injection and sacrificing at the end point, the function of the limbs was assessed by a weight bearing test. All the mice were sacrificed for pathological evaluation and immunohistochemical staining 13 days after first dosing. Mouse joints were fixed in 4% paraformaldehyde overnight, dehydrated in increasing concentrations of ethanol and embedded in paraffin. Sections (5 μm) were cut from the paraffin blocks and applied to glass slides. The sections were stained for proteoglycans with aqueous safranin O (0.1%) for 5 min, and the specimens were then mounted.

With `CCN1[C@@H](C(=O)NC23CCC(C(=O)O)(CC2)CC3)[C@H](c2cccc(Cl)c2F)[C@]2(C(=O)Nc3cc(Cl)ccc32)C12CCCCC2` [compound A] the “weight bearing % (weight on operated limb versus contralateral unoperated limb)” value (from here on “weight bearing %”) (mouse ACLT model [1]; 0.01 μmol (1 mM, 10 uL) intra-articular, compared with untreated control (P<0.05) and vehicle control (P<0.0001)) was “significantly increased value of weight bearing %”, the “weight bearing %” value (mouse ACLT model [1]; 0.05 μmol (5 mM, 10 uL) intra-articular, P<0.05 vs 1 mM compound A group) was “further increase in the value of weight bearing %” and the “weight bearing %” value (mouse ACLT model [1]; C57BL/6 mice, ACLT, intra-articular injection, across doses 0.01 and 0.05 μmol) was “dose-dependent effect in improving weight bearing %”. For the same molecule, the joint pain (mouse ACLT model [1]; mouse ACLT model, intra-articular injection) was “significantly relieved the joint pain”, the cartilage development (mouse ACLT model [2]) was “increased cartilage development” and the “pathological changes (articular cartilage erosion, proteoglycan loss, thinning and calcification of articular cartilage)” value (mouse ACLT model [2]) was “attenuated”.
